Assay results as given in the kinase profiling compilation of Christmann-Franck et al. (2016).
One block for each compound: values may come before it.

Legend:
Test in all cases: radiometric filter-binding kinase assay
EPHA4 (human) = EPHA4 (human) (UniProt P54764)
MKNK2 (human) = MKNK2 (human) (UniProt Q9HBH9)
CSK (human) = CSK (human) (UniProt P41240)
EEF2K (human) = EEF2K (human) (UniProt O00418)
[1] = system: AKT1 (human), P31749 [S473D]
BRSK2 (human) = BRSK2 (human) (UniProt Q8IWQ3)
MAP2K2 (human) = MAP2K2 (human) (UniProt P36507)
ERBB4 (human) = ERBB4 (human) (UniProt Q15303)
GSK3B (human) = GSK3B (human) (UniProt P49841)
CSNK1D (human) = CSNK1D (human) (UniProt P48730)
Chain of CSNK1D (human) (P48730 whole entry, looked up): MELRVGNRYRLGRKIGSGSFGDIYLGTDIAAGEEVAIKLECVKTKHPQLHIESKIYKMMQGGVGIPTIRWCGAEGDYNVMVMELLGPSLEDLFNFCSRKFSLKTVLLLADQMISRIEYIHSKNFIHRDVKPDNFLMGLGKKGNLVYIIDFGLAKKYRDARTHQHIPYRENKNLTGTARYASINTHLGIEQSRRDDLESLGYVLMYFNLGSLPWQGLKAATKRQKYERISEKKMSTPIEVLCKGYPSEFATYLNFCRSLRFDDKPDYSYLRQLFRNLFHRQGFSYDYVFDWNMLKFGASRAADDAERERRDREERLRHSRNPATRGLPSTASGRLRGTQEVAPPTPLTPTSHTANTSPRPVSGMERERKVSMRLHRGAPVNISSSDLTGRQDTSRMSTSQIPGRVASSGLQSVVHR

[2] = system: PAK2 (human), Q13177 [T402E]
Chain of PAK2 (human), Q13177 [T402E] (Q13177 whole entry T402E, looked up): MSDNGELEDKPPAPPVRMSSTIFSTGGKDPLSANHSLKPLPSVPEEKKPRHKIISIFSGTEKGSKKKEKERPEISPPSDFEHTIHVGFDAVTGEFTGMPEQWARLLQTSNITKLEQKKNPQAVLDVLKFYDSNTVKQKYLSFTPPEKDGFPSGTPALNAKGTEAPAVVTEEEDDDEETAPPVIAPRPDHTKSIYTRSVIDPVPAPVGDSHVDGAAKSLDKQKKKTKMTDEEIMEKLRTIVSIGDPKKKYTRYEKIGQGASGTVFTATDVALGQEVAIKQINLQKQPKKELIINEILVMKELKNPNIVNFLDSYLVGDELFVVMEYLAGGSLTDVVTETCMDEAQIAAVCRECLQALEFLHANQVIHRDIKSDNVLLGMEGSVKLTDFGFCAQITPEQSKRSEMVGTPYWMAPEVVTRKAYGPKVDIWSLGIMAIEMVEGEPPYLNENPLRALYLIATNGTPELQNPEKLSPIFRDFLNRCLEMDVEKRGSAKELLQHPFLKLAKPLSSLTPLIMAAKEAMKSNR

RPS6KA3 KD1 KD2 (human) = RPS6KA3 KD1 KD2 (human) (UniProt P51812)
Chain of RPS6KA3 KD1 KD2 (human) (P51812 whole entry, looked up): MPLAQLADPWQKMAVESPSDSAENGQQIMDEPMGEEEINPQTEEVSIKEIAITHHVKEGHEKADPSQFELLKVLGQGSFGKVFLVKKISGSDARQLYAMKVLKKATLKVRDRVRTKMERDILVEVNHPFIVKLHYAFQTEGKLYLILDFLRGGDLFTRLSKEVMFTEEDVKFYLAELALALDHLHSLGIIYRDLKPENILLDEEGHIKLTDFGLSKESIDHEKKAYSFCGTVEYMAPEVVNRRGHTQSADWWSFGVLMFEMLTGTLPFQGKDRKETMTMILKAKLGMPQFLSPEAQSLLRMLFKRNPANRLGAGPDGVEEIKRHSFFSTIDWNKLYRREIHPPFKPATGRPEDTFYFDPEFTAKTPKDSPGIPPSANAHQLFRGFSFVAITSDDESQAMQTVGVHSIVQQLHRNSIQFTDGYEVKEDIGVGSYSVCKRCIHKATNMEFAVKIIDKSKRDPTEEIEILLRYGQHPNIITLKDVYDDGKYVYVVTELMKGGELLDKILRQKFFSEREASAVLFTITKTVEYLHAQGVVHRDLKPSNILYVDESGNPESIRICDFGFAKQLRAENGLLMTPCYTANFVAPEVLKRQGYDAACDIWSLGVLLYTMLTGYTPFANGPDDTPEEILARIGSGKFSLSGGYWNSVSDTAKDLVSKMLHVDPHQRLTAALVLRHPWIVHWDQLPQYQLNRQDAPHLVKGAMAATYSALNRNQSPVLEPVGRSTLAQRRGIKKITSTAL

AURKA (human) = AURKA (human) (UniProt O14965)
Chain of AURKA (human) (O14965 whole entry, looked up): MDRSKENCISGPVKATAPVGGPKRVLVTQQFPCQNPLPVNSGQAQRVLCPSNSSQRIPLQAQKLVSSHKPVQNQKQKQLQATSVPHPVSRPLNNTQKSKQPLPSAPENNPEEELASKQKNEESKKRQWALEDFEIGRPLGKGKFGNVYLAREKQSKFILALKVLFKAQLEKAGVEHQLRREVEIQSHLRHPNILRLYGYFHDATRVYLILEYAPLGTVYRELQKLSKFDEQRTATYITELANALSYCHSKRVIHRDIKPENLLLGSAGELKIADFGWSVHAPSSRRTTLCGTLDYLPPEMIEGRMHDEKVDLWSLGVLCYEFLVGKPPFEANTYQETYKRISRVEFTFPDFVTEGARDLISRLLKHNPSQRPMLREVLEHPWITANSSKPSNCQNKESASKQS

FGFR1 (human) = FGFR1 (human) (UniProt P11362)
NEK6 (human) = NEK6 (human) (UniProt Q9HC98)
MAP3K1 (human) = MAP3K1 (human) (UniProt Q13233)
SRPK1 (human) = SRPK1 (human) (UniProt Q96SB4)
Chain of SRPK1 (human) (Q96SB4 whole entry, looked up): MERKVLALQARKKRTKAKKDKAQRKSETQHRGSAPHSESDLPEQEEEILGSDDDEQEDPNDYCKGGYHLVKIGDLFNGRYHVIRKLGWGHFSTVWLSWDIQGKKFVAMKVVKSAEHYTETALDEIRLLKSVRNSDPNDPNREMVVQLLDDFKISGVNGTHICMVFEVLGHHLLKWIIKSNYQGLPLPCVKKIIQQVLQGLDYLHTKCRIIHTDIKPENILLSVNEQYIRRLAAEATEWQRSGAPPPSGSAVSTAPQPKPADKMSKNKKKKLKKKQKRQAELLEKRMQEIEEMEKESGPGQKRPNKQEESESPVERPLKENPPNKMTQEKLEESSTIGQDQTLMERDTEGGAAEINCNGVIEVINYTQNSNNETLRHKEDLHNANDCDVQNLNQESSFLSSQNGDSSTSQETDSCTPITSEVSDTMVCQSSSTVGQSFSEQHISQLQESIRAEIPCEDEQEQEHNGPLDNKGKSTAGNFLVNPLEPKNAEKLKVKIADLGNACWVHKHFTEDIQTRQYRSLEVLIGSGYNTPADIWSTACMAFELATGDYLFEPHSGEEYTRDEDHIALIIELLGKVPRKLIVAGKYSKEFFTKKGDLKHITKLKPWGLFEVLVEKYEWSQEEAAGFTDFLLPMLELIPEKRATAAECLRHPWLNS

RPS6KA5 KD1 KD2 (human) = RPS6KA5 KD1 KD2 (human) (UniProt O75582)
PLK1 (human) = PLK1 (human) (UniProt P53350)
IKBKB (human) = IKBKB (human) (UniProt O14920)
MAPK8 (human) = MAPK8 (human) (UniProt P45983)
BTK (human) = BTK (human) (UniProt Q06187)
MAPK15 (human) = MAPK15 (human) (UniProt Q8TD08)
Chain of MAPK15 (human) (Q8TD08 whole entry, looked up): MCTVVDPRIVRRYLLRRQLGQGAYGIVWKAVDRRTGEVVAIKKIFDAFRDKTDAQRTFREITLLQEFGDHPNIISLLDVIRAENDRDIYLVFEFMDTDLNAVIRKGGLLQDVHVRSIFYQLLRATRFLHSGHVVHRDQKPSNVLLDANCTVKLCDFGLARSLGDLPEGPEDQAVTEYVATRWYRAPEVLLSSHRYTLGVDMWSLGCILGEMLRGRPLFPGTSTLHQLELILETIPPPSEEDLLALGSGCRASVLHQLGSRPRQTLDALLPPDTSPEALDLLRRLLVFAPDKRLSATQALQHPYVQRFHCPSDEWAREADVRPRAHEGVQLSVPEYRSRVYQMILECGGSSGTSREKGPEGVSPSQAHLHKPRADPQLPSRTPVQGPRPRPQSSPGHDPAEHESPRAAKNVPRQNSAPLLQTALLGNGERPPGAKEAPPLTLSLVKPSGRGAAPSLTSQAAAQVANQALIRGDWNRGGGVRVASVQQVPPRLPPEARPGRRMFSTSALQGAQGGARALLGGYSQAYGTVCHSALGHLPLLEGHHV

MAPKAPK3 (human) = MAPKAPK3 (human) (UniProt Q16644)
[3] = molecular target: STK11 CAB39 STRADA (human) (UniProt Q9Y376+Q7RTN6+Q15831)
MAPK1 (human) = MAPK1 (human) (UniProt P28482)
MAP3K5 (human) = MAP3K5 (human) (UniProt Q99683)
PAK7 (human) = PAK7 (human) (UniProt Q9P286)
MAPK3 (human) = MAPK3 (human) (UniProt P27361)
MAP2K6 (human) = MAP2K6 (human) (UniProt P52564)
MAPK9 (human) = MAPK9 (human) (UniProt P45984)
HIPK3 (human) = HIPK3 (human) (UniProt Q9H422)
HIPK1 (human) = HIPK1 (human) (UniProt Q86Z02)
TBK1 (human) = TBK1 (human) (UniProt Q9UHD2)
Chain of TBK1 (human) (Q9UHD2 whole entry, looked up): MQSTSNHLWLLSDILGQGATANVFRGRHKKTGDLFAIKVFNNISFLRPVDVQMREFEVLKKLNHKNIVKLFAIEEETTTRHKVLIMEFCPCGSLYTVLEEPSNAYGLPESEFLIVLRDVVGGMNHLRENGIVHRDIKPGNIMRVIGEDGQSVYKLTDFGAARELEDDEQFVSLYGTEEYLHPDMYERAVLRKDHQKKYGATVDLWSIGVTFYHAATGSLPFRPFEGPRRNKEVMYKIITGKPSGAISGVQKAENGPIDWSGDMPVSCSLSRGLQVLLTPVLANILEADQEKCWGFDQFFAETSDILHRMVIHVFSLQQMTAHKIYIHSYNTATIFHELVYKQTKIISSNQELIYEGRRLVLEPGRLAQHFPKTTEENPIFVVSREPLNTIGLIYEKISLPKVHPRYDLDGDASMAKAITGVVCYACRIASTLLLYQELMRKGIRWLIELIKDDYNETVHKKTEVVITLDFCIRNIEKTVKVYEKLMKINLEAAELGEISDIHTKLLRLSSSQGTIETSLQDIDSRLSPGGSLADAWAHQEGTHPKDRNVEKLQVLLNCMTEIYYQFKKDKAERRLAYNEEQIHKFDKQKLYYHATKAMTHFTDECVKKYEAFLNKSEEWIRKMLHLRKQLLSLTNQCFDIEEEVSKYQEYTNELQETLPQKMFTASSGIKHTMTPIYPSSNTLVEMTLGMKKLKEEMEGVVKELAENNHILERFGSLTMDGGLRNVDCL

BRSK1 (human) = BRSK1 (human) (UniProt Q8TDC3)

Chain of BRSK2 (human) (Q8IWQ3 whole entry, looked up): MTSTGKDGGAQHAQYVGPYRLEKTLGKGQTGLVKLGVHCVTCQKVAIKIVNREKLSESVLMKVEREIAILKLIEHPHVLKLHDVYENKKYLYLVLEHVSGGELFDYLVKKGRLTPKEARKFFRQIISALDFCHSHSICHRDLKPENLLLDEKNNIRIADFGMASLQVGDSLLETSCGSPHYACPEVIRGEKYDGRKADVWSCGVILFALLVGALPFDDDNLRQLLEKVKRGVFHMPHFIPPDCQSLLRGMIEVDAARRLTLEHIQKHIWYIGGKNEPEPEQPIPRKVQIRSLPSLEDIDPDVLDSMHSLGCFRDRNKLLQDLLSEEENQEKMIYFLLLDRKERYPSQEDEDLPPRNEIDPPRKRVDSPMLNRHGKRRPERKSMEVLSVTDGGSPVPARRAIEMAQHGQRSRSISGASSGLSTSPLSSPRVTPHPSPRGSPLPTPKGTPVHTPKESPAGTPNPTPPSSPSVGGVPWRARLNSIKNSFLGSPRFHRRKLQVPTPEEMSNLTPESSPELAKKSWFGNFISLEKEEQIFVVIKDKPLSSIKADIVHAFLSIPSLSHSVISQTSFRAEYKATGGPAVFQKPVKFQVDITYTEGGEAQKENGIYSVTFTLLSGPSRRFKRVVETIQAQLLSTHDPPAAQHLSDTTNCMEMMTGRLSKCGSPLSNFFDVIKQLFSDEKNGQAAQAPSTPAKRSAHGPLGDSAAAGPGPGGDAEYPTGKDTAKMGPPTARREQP

residual activity (EPHA4 (human); compound 10.0 µM): 107%
residual activity (MKNK2 (human); compound 1.0 µM): 74%
residual activity (MKNK2 (human); compound 10.0 µM): 96%
residual activity (MKNK2 (human); compound 50.0 µM): 34%
residual activity (CSK (human); compound 1.0 µM): 102%
residual activity (CSK (human); compound 10.0 µM): 87%
residual activity (CSK (human); compound 50.0 µM): 68%
residual activity (EEF2K (human); compound 1.0 µM): 95%
residual activity (EEF2K (human); compound 10.0 µM): 69%
residual activity (EEF2K (human); compound 50.0 µM): 87%
residual activity ([1]; compound 1.0 µM): 82%
residual activity ([1]; compound 10.0 µM): 89%
residual activity ([1]; compound 50.0 µM): 63%
residual activity (BRSK2 (human); compound 1.0 µM): 54%
residual activity (BRSK2 (human); compound 10.0 µM): 50%
residual activity (BRSK2 (human); compound 50.0 µM): 13%
residual activity (MAP2K2 (human); compound 10.0 µM): 91%
residual activity (ERBB4 (human); compound 10.0 µM): 59%
residual activity (GSK3B (human); compound 1.0 µM): 100%
residual activity (GSK3B (human); compound 10.0 µM): 80%
residual activity (GSK3B (human); compound 50.0 µM): 37%
residual activity (CSNK1D (human); compound 1.0 µM): 84%
residual activity (CSNK1D (human); compound 10.0 µM): 94%
residual activity (CSNK1D (human); compound 50.0 µM): 46%
residual activity ([2]; compound 10.0 µM): 83%
residual activity (RPS6KA3 KD1 KD2 (human); compound 1.0 µM): 77%
residual activity (RPS6KA3 KD1 KD2 (human); compound 10.0 µM): 72%
residual activity (RPS6KA3 KD1 KD2 (human); compound 50.0 µM): 18%
residual activity (AURKA (human); compound 10.0 µM): 100%
residual activity (FGFR1 (human); compound 10.0 µM): 85%
residual activity (NEK6 (human); compound 1.0 µM): 104%
residual activity (NEK6 (human); compound 10.0 µM): 96%
residual activity (NEK6 (human); compound 50.0 µM): 87%
residual activity (MAP3K1 (human); compound 10.0 µM): 90%
residual activity (SRPK1 (human); compound 1.0 µM): 111%
residual activity (SRPK1 (human); compound 10.0 µM): 87%
residual activity (SRPK1 (human); compound 50.0 µM): 93%
residual activity (RPS6KA5 KD1 KD2 (human); compound 1.0 µM): 80%
residual activity (RPS6KA5 KD1 KD2 (human); compound 10.0 µM): 65%
residual activity (RPS6KA5 KD1 KD2 (human); compound 50.0 µM): 16%
residual activity (PLK1 (human); compound 1.0 µM): 90%
residual activity (PLK1 (human); compound 10.0 µM): 87%
residual activity (PLK1 (human); compound 50.0 µM): 78%
residual activity (IKBKB (human); compound 1.0 µM): 99%
residual activity (IKBKB (human); compound 10.0 µM): 70%
residual activity (IKBKB (human); compound 50.0 µM): 46%
residual activity (MAPK8 (human); compound 1.0 µM): 96%
residual activity (MAPK8 (human); compound 10.0 µM): 108%
residual activity (MAPK8 (human); compound 50.0 µM): 101%
residual activity (BTK (human); compound 10.0 µM): 75%
residual activity (MAPKAPK3 (human); compound 1.0 µM): 121%
residual activity (MAPKAPK3 (human); compound 10.0 µM): 64%
residual activity (MAPKAPK3 (human); compound 50.0 µM): 97%
residual activity ([3]; compound 10.0 µM): 69%
residual activity (MAPK1 (human); compound 1.0 µM): 102%
residual activity (MAPK1 (human); compound 10.0 µM): 79%
residual activity (MAPK1 (human); compound 50.0 µM): 100%
residual activity (MAP3K5 (human); compound 10.0 µM): 77%
residual activity (PAK7 (human); compound 1.0 µM): 102%
residual activity (PAK7 (human); compound 10.0 µM): 83%
residual activity (PAK7 (human); compound 50.0 µM): 75%
residual activity (MAPK3 (human); compound 1.0 µM): 101%
residual activity (MAPK3 (human); compound 10.0 µM): 88%
residual activity (MAPK3 (human); compound 50.0 µM): 92%
residual activity (MAP2K6 (human); compound 10.0 µM): 87%
residual activity (MAPK9 (human); compound 1.0 µM): 95%
residual activity (MAPK9 (human); compound 10.0 µM): 86%
residual activity (MAPK9 (human); compound 50.0 µM): 103%
residual activity (HIPK3 (human); compound 1.0 µM): 93%
residual activity (HIPK3 (human); compound 10.0 µM): 41%
residual activity (HIPK3 (human); compound 50.0 µM): 12%
residual activity (HIPK1 (human); compound 10.0 µM): 48%
residual activity (TBK1 (human); compound 10.0 µM): 79%
residual activity (BRSK1 (human); compound 10.0 µM): 56%
SMILES: Oc1ccc(/C=C/c2cc(O)cc(O)c2)cc1
residual activity (MAPK15 (human); compound 1.0 µM): 36%
residual activity (MAPK15 (human); compound 10.0 µM): 10%
residual activity (MAPK15 (human); compound 50.0 µM): 12%

residual activity (EPHA4 (human); compound 1.0 µM): 107%
residual activity (EPHA4 (human); compound 10.0 µM): 84%
residual activity (MKNK2 (human); compound 1.0 µM): 113%
residual activity (MKNK2 (human); compound 10.0 µM): 89%
residual activity (CSK (human); compound 1.0 µM): 83%
residual activity (CSK (human); compound 10.0 µM): 74%
residual activity (EEF2K (human); compound 1.0 µM): 90%
residual activity (EEF2K (human); compound 10.0 µM): 56%
residual activity ([1]; compound 1.0 µM): 81%
residual activity ([1]; compound 10.0 µM): 63%
residual activity (BRSK2 (human); compound 1.0 µM): 92%
residual activity (BRSK2 (human); compound 10.0 µM): 46%
residual activity (MAP2K2 (human); compound 1.0 µM): 107%
residual activity (MAP2K2 (human); compound 10.0 µM): 77%
residual activity (ERBB4 (human); compound 1.0 µM): 71%
residual activity (ERBB4 (human); compound 10.0 µM): 67%
residual activity (GSK3B (human); compound 1.0 µM): 80%
residual activity (GSK3B (human); compound 10.0 µM): 73%
residual activity (CSNK1D (human); compound 1.0 µM): 86%
residual activity (CSNK1D (human); compound 10.0 µM): 78%
residual activity ([2]; compound 1.0 µM): 83%
residual activity ([2]; compound 10.0 µM): 78%
residual activity (RPS6KA3 KD1 KD2 (human); compound 1.0 µM): 39%
residual activity (RPS6KA3 KD1 KD2 (human); compound 10.0 µM): 11%
residual activity (AURKA (human); compound 1.0 µM): 111%
residual activity (AURKA (human); compound 10.0 µM): 91%
residual activity (FGFR1 (human); compound 1.0 µM): 97%
residual activity (FGFR1 (human); compound 10.0 µM): 72%
residual activity (NEK6 (human); compound 1.0 µM): 99%
residual activity (NEK6 (human); compound 10.0 µM): 101%
residual activity (MAP3K1 (human); compound 1.0 µM): 62%
residual activity (MAP3K1 (human); compound 10.0 µM): 50%
residual activity (SRPK1 (human); compound 1.0 µM): 92%
residual activity (SRPK1 (human); compound 10.0 µM): 101%
residual activity (RPS6KA5 KD1 KD2 (human); compound 1.0 µM): 105%
residual activity (RPS6KA5 KD1 KD2 (human); compound 10.0 µM): 55%
residual activity (PLK1 (human); compound 1.0 µM): 83%
residual activity (PLK1 (human); compound 10.0 µM): 87%
residual activity (IKBKB (human); compound 1.0 µM): 6%
residual activity (IKBKB (human); compound 10.0 µM): 4%
residual activity (MAPK8 (human); compound 1.0 µM): 110%
residual activity (MAPK8 (human); compound 10.0 µM): 80%
residual activity (BTK (human); compound 1.0 µM): 122%
residual activity (BTK (human); compound 10.0 µM): 58%
residual activity (MAPKAPK3 (human); compound 1.0 µM): 87%
residual activity (MAPKAPK3 (human); compound 10.0 µM): 85%
residual activity ([3]; compound 1.0 µM): 78%
residual activity ([3]; compound 10.0 µM): 65%
residual activity (MAPK1 (human); compound 1.0 µM): 101%
residual activity (MAPK1 (human); compound 10.0 µM): 76%
residual activity (MAP3K5 (human); compound 1.0 µM): 102%
residual activity (MAP3K5 (human); compound 10.0 µM): 83%
residual activity (PAK7 (human); compound 1.0 µM): 84%
residual activity (PAK7 (human); compound 10.0 µM): 75%
residual activity (MAPK3 (human); compound 1.0 µM): 85%
residual activity (MAPK3 (human); compound 10.0 µM): 80%
residual activity (MAP2K6 (human); compound 1.0 µM): 76%
residual activity (MAP2K6 (human); compound 10.0 µM): 83%
residual activity (MAPK9 (human); compound 1.0 µM): 83%
residual activity (MAPK9 (human); compound 10.0 µM): 71%
residual activity (HIPK3 (human); compound 1.0 µM): 129%
residual activity (HIPK3 (human); compound 10.0 µM): 79%
residual activity (HIPK1 (human); compound 1.0 µM): 113%
residual activity (HIPK1 (human); compound 10.0 µM): 62%
residual activity (TBK1 (human); compound 1.0 µM): 80%
residual activity (TBK1 (human); compound 10.0 µM): 86%
residual activity (BRSK1 (human); compound 1.0 µM): 107%
residual activity (BRSK1 (human); compound 10.0 µM): 58%
SMILES: N#Cc1c(C2CCNCC2)cc(-c2c(O)cccc2OCC2CC2)nc1N
residual activity (MAPK15 (human); compound 1.0 µM): 59%
residual activity (MAPK15 (human); compound 10.0 µM): 9%
